Measured values from US20230256108A1, “A DRUG CONJUGATE AND APPLICATIONS THEREOF” (GENEQUANTUM HEALTHCARE (SUZHOU) CO., LTD., priority 2019, published 2023).
Like-named read-outs stand apart in the source and are kept apart here. Non-standard residues stand in square brackets, D forms with d. Residues, ends and D or L forms follow the SMILES beside them. *: point of attachment. Dolaproine = CO[C@@H]([C@@H]1CCCN1)[C@@H](C)C(=O)O; Hexanoyl(6-maleimido) = O=C1C=CC(=O)N1CCCCCC(=O)*; Dil = CC[C@H](C)[C@H](NC)[C@@H](CC(=O)O)OC; NMeV = CN[C@H](C(=O)O)C(C)C

Columns and labels:
SK-BR-3 = assay: Cytotoxicity, HER2 high-expressing cancer cells; assay type: cell-based, human
HCC1954 = assay: Cytotoxicity, HER2 high-expressing cancer cells; assay type: cell-based, human
BT-474 = assay: Cytotoxicity, HER2 high-expressing cancer cells; assay type: cell-based
NCI-N87 = assay: Cytotoxicity, HER2 high-expressing cancer cells; assay type: cell-based, human
MDA-MB-231 = assay: Cytotoxicity, HER2 low-expressing or HER2-negative cells; assay type: cell-based; conditions: Homo sapiens
Method: (§1) Cytotoxicity experiments were performed using human breast cancer cells MDA-MB-231, MDA-MB-468, which are HER2 low-expressing or HER2-negative.

MDA-MB-468 = assay: as above; assay type: cell-based; conditions: Homo sapiens
Method: as §1

| Compound | IC50 (SK-BR-3) | IC50 (HCC1954) | IC50 (BT-474) | IC50 (NCI-N87) | IC50 (MDA-MB-231) | IC50 (MDA-MB-468) | IC50 (SK-BR-3; Homo sapiens, SK-BR-3) | IC50 (HCC1954; Homo sapiens, HCC1954) | IC50 (BT-474; Homo sapiens, BT-474) | IC50 (NCI-N87; Homo sapiens, NCI-N87) |
| --- | --- | --- | --- | --- | --- | --- | --- | --- | --- | --- |
| COc1cc2cc(c1Cl)N(C)C(=O)C[C@H](OC(=O)[C@H](C)N(C)C(=O)CCS)[C@]1(C)O[C@H]1[C@H](C)[C@@H]1C[C@@](O)(NC(=O)O1)[C@H](OC)/C=C/C=C(\C)C2 [DM1] | 1.92 nM | 2.67 nM | 6.24 nM | 6.97 nM |  |  |  |  |  |  |
| CC[C@H](C)[C@@H]([C@@H](CC(=O)N1CCC[C@H]1[C@H](OC)[C@@H](C)C(=O)N[C@@H](Cc1ccccc1)C(=O)O)OC)N(C)C(=O)[C@H](NC(=O)[C@H](C(C)C)N(C)C(=O)CCCCCN1C(=O)CC(SCC(NC(=O)CCOCCOCCOCCOCCNC(=O)CNC(=O)CNC(=O)CN)C(N)=O)C1=O)C(C)C (stereo partly drawn) [IM102 (ring closed)] |  |  |  |  | 1710 nM | 1080 nM | 383 nM | 160 nM | 267 nM | 690 nM |
| CC[C@H](C)[C@@H]([C@@H](CC(=O)N1CCC[C@H]1[C@H](OC)[C@@H](C)C(=O)N[C@@H](Cc1ccccc1)C(=O)O)OC)N(C)C(=O)[C@@H](NC(=O)[C@@H](NC)C(C)C)C(C)C [MMAF, monomethyl auristatin F] (H-[NMeV]V[Dil][Dolaproine]F-OH) | 54.3 nM | 39.6 nM | 44.7 nM | 41.4 nM |  |  |  |  |  |  |
| CC[C@H](C)[C@@H]([C@@H](CC(=O)N1CCC[C@H]1[C@H](OC)[C@@H](C)C(=O)N[C@@H](Cc1ccccc1)C(=O)O)OC)N(C)C(=O)[C@@H](NC(=O)[C@H](C(C)C)N(C)C(=O)CCCCCN1C(=O)C=CC1=O)C(C)C [mc-MMAF] ({Hexanoyl(6-maleimido)}-[NMeV]V[Dil][Dolaproine]F-OH) | 98.6 nM | 116 nM | 56.1 nM | 208 nM |  |  |  |  |  |  |
